Assay results taken from the supplement of paper PMC10307832.

How the values were obtained:
Experiment in all cases: relative viability (nuclei count vs DMSO), 5 days (fraction); higher = more cells survive
AZ505 + Palbociclib = compound: C1CCC(CC1)N(CCNCCC2=C3C(=C(C=C2)O)NC(=O)CO3)C(=O)CCNCCC4=CC(=C(C=C4)Cl)Cl [AZ505] + CC(=O)c1c(C)c2cnc(Nc3ccc(N4CCNCC4)cn3)nc2n(C2CCCC2)c1=O [Palbociclib] (partner 0.5 µM)
In short: (§1)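 Values are medians from duplicate plates. Each reflects relative viability, defined as the nuclei count of treated wells over that of vehicle wells. Lung cancer cell lines in 1536-well plates were pin-tool dosed one day after seeding with one drug alone or with a fixed anchor-drug dose plus five library-drug doses (not always all listed) in √10 steps, then fixed, stained and imaged at 4× after 5 days.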

AZ505 + Navitoclax = compound: C1CCC(CC1)N(CCNCCC2=C3C(=C(C=C2)O)NC(=O)CO3)C(=O)CCNCCC4=CC(=C(C=C4)Cl)Cl [AZ505] + CC1(C)CCC(c2ccc(Cl)cc2)=C(CN2CCN(c3ccc(C(=O)NS(=O)(=O)c4ccc(N[C@H](CCN5CCOCC5)CSc5ccccc5)c(S(=O)(=O)C(F)(F)F)c4)cc3)CC2)C1 [Navitoclax] (partner 0.5 µM)
In short: as §1

Dactolisib + Linsitinib = compound: Cn1c(=O)n(-c2ccc(C(C)(C)C#N)cc2)c2c3cc(-c4cnc5ccccc5c4)ccc3ncc21 [Dactolisib] + C[C@]1(O)C[C@@H](c2nc(-c3ccc4ccc(-c5ccccc5)nc4c3)c3c(N)nccn32)C1 [Linsitinib] (partner 1 µM)
In short: as §1

Dactolisib + Crizotinib = compound: Cn1c(=O)n(-c2ccc(C(C)(C)C#N)cc2)c2c3cc(-c4cnc5ccccc5c4)ccc3ncc21 [Dactolisib] + C[C@@H](Oc1cc(-c2cnn(C3CCNCC3)c2)cnc1N)c1c(Cl)ccc(F)c1Cl [Crizotinib] (partner 1 µM)
In short: as §1

Cell Line	relative viability (AZ505 + Palbociclib; first compound 0.08 µM)	relative viability (AZ505 + Palbociclib; first compound 0.253 µM)	relative viability (AZ505 + Palbociclib; first compound 0.8 µM)	relative viability (AZ505 + Palbociclib; first compound 2.53 µM)	relative viability (AZ505 + Palbociclib; first compound 8 µM)	relative viability (AZ505 + Navitoclax; first compound 0.08 µM)	relative viability (AZ505 + Navitoclax; first compound 0.253 µM)	relative viability (AZ505 + Navitoclax; first compound 0.8 µM)	relative viability (AZ505 + Navitoclax; first compound 2.53 µM)	relative viability (AZ505 + Navitoclax; first compound 8 µM)	relative viability (Dactolisib + Linsitinib; first compound 0.002 µM)	relative viability (Dactolisib + Linsitinib; first compound 0.02 µM)	relative viability (Dactolisib + Linsitinib; first compound 0.06325 µM)	relative viability (Dactolisib + Linsitinib; first compound 0.2 µM)	relative viability (Dactolisib + Crizotinib; first compound 0.002 µM)	relative viability (Dactolisib + Crizotinib; first compound 0.006325 µM)	relative viability (Dactolisib + Crizotinib; first compound 0.02 µM)	relative viability (Dactolisib + Crizotinib; first compound 0.06325 µM)	relative viability (Dactolisib + Crizotinib; first compound 0.2 µM)	relative viability (Dactolisib + Linsitinib; first compound 0.006325 µM)
LC-2-ad	0.458	0.479	0.45	0.499	0.511	0.285	0.594	0.528	0.491	0.54	0.722	0.751	0.488	0.565	0.403	0.477	0.505	0.338	0.4	
LCLC-97TM1	0.213	0.252	0.219		0.232	0.446	0.521	0.902	0.735	0.694	0.157	0.208	0.157	0.132	0.509	0.373	0.277	0.149	0.145	0.186
LK-2	0.487	0.73	0.768	0.792	0.898	0.825	0.952	0.805	0.934	0.842	0.389	0.507	0.169	0.251	0.209	0.244	0.266	0.213	0.216	0.508
LOU-NH91	0.55	0.534	0.551	0.562	0.536	0.612	0.694	0.657	0.657	0.804	0.712	0.837	0.588	0.527	0.718	0.715	0.698	0.593	0.515	0.888
LU99A	0.363	0.447	0.403		0.367	0.745	0.814	0.839	0.894	0.749	0.572	0.307	0.218	0.223	0.548	0.446	0.335	0.272	0.231	0.468
LXF-289	0.552	0.608	0.568	0.594	0.588	0.891		0.919	0.881	0.935	0.952	0.987	0.757	0.658	0.822	0.779	0.896	0.942	0.708	0.98
NCI-H23	0.465	0.522	0.505	0.533	0.485	0.71		0.849	0.819	0.694	0.553	0.368	0.243	0.287	0.455	0.408	0.614	0.357	0.257	0.598
NCI-H322M	0.53		0.473	0.489	0.503	1.18	1.1	1.16	1.1	1.28	0.939	0.84	0.586	0.442	0.827	1.02	0.863	0.684	0.641	0.826
NCI-H441	0.228	0.233	0.258	0.231	0.223	0.691	0.682	0.545	0.716	0.505	0.594	0.435	0.343	0.286	0.923	0.64	0.554	0.496	0.271	0.592
NCI-H460	0.183	0.162	0.147	0.187	0.167	1.02	1.19	0.965	1.11	1.2	0.933	0.434	0.0937	0.0501	1.09	0.835	0.513	0.136	0.0929	0.654
NCI-H520	0.229	0.235	0.201	0.263	0.237	1.05	1.23	1.12	1.22	1.07	1.02	0.53	0.191	0.186	0.813	0.658	0.539	0.207	0.174	0.731
NCI-H647	0.362	0.461	0.387	0.429	0.432	1.02	1.22	1.14	0.97	1.32	1.15	0.736	0.192	0.146	1.21	0.848	0.5	0.133	0.124	0.898
NCI-H727	0.598	0.687	0.625	0.552	0.674	0.501	0.461	0.471	0.428	0.483	0.271	0.266	0.213	0.37	0.915	0.671	0.666	0.354	0.374	0.317
NCI-H838	0.236	0.191	0.195	0.216	0.195	1.12	1.13	1.13	1.11	1.11	0.915	0.652	0.226	0.22	0.798	0.586	0.534	0.275	0.216	0.444
NCI-H1355	0.369	0.398	0.396	0.367	0.374	0.883	0.864	0.908	0.915	0.987	0.848	0.733	0.354	0.257	1.18	1.09	0.99	0.488	0.326	0.761
NCI-H1437	0.309	0.33	0.314	0.335	0.301	1.03	1.14	1.06	1.07	1.08	1.05	0.981	0.596	0.315	1.03	0.904	0.902	0.699	0.865	0.985
